Laboratory results reported in US20230167101A1, “NOVEL INHIBITORS OF HISTONE […] P300/CBP FOR CANCER THERAPY” (BAYLOR COLLEGE OF MEDICINE, priority 2020, published 2023).
pEC50: −log10 of the molar value. Several values for one entry are separate records, joined by “and”; a condition that tells them apart may be missing. Equal entries are not always repeated.

Columns and labels:
MCF-7 = experiment: Cell growth inhibition, MCF-7; assay type: cell-based; conditions: read-out: EC50, antiproliferative activity
Experimental: (§1) The anti-proliferation assays for non-breast cancer cells were done using a previously developed assay. In brief, for Kasumi-1 cells, […] were added into 96-well plates and cultured with increasing concentrations of a compound in RPMI-1640 medium supplemented with 20% fetal bovine serum and penicillin (100 U/mL) and streptomycin (100 µg/mL) at 37° C. in a 5% CO2 atmosphere with 100% humidity. For solid tumor cells, 10^5 cells per well were added into 96-well plates and cultured in Dulbecco’s Modified Eagle’s Medium (DMEM) supplemented with 10% fetal bovine serum and penicillin (100 U/mL) and streptomycin (100 µg/mL) overnight. Upon addition of increasing concentrations of a compound, cells were incubated for 5 days. Cell viability was assessed by using an XTT assay kit (Roche) for leukemia cells or an MTT assay (Sigma) for attachment cells. For the breast cancer MCF-7 cells, culture and inhibition assays were performed according to our previous methods in Ref. 25 and 26. Compound EC50 values were calculated from dose response curves using Prism 5.0.

[1] = system: ER+ breast cancer MCF-7 cells; experiment: RNA sequencing / gene set enrichment analysis (GSEA); assay type: cell-based, human; conditions: MCF-7, 6 µM, 48 h, with estradiol 10 nM
Experimental: RNA sequencing was used to investigate how treatment with p300 HAT inhibitor 12 affects gene expression in ER^+ breast cancer MCF-7 cells. […] RNA sequencing data were mapped onto the human genome and gene expression profiles were determined and normalized. […] Gene set enrichment analysis (GSEA)(31) was used to analyze significant gene expression changes between these three groups of MCF-7 cells.
Upon starvation (culturing in phenol red-free DMEM medium with 10% charcoal treated FBS to remove hydrophobic hormones such as estrogens) for 7 days, MCF-7 cells were treated with the p300 inhibitor (6 µM) or DMSO control, in the presence or absence of (10 nM) estradiol (E2) for 48 hours. Total RNA was extracted using RNeasy Plus Mini Kit (Qiagen), according to the manufacturer’s instruction.
The RNA integrity for each sample was assessed with a RNA 6000 Nano chip on a 2100 Bioanalyzer (Agilent; Santa Clara, CA). The average RNA integrity score for the sample set was 6.48. Sequencing libraries were prepared using the TruSeq Stranded Total RNA Library Prep Kit (Illumina, Inc; San Diego, CA). Concisely, ribosomal RNA (rRNA) was depleted from total RNA where the remaining (ribo-depleted RNA) was purified, fragmented for 7.5 minutes, and primed for cDNA synthesis. […] The concentration of each library was determined by quantitative PCR (qPCR) by the KAPA Library Quantification Kit for Next Generation Sequencing (KAPA Biosystems; Woburn, MA).
Libraries were normalized to 50 nmol/L in 10 mM Tris-Cl, pH8.5 with 0.1% Tween 20 then pooled evenly. […] Sequencing-by-synthesis (SBS) was performed on a HiSeq 2500 utilizing v2 chemistry with paired-end 101 bp reads and a 6 bp index read culminating in an average output of 20 million paired-end reads (or 40 million total reads) per sample. Sequence read data were processed and converted to FASTQ format by Illumina BaseSpace analysis software (v2.0.13).
RNAseq data files were trimmed using Trim Galore!. […] Gene expression was assessed and fragments per kilobase of transcript per million (FPKM) values were determined using Stringtie. […]

PANC-1 = experiment: Cell growth inhibition, PANC-1 (MTT); assay type: cell-based; conditions: PANC-1, 5 days; read-out: EC50, antiproliferative activity
Experimental: as §1

In the case of `CC(C)(C)c1ccc(-c2cc(CNCC3CCNCC3)sc2-c2ccc(C(C)(C)C)cc2)cc1` [Compound 12], the pEC50 (MCF-7) was 5.55 and ~5.52, the “normalized enrichment score (NES), genes suppressed by p300 knockdown (GSE31873)” value ([1]; FIG. 7A) was -3.32 and the “NES, gene set upregulated by estradiol” value ([1]; FIG. 7B) was -9.19. The “NES, genes suppressed by estradiol” value ([1]; FIG. 7C) was 7.41 and the pEC50 (PANC-1) was 6.00.
